# Data taken from BindingDB's records for PubMed 8102785 (University of Pennsylvania, 1993).
# Where a SMILES comes first, the peptide text is derived from it. Bridges are numbered along the chain shown (N, C = ends). [ ]: non-standard residue; d: D form. The star is where a group is joined. NH(1-naphthylmethyl) = c1ccc2c(CN*)cccc2c1; Phe(4-Cl) = N[C@@H](Cc1ccc(Cl)cc1)C(=O)O; 2Nal = N[C@@H](Cc1ccc2ccccc2c1)C(=O)O; 1Nal = N[CH](Cc1cccc2ccccc12)C(=O)O; dNMeF = CN[C@H](Cc1ccccc1)C(=O)O; Thr(ol) = C[CH](O)[CH](N)CO; dNMeA = CN[C@H](C)C(=O)O; Aoc = NCCCCCCCC(=O)O; Ahp = NCCCCCCC(=O)O; Ahx = NCCCCCC(=O)O; Bn = c1ccc(C*)cc1
# Target: Somatostatin receptor type 4 (Rattus norvegicus, UniProt P30937)
# Sequence (P30937 whole entry): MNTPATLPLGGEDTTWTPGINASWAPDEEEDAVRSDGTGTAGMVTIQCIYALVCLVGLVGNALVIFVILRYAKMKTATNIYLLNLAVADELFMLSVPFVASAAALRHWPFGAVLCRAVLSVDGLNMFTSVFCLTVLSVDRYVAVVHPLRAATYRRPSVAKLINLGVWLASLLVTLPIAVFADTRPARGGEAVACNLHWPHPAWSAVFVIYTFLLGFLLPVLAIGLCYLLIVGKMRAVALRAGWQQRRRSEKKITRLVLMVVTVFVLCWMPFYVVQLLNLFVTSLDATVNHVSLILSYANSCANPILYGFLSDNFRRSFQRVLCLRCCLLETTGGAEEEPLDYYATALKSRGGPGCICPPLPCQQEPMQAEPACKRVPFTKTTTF
row,SMILES,Ki [nM]
1,CC[C@@H]1NC(=O)[C@H](CCCCN)NC(=O)[C@@H](Cc2c[nH]c3ccccc23)NC(=O)[C@H](Cc2ccc(O)cc2)NC(=O)[C@@H](NC(=O)[C@H](N)Cc2ccccc2)CSSC[C@@H](C(=O)N[C@H](C(N)=O)[C@@H](C)O)NC1=O [D-Phe-L-Cys(1)-L-Tyr-D-Trp-L-Lys-L-Abu-L-Cys(1)-L-Thr-NH2],0.18
2,CC(C)[C@H](NC(=O)[C@H](CCCCN)NC(=O)[C@@H](Cc1c[nH]c2ccccc12)NC(=O)[C@H](Cc1ccc(O)cc1)NC(=O)[C@H](Cc1ccccc1)NC(=O)[C@H](N)Cc1ccccc1)C(=O)N[C@@H](Cc1ccccc1)C(=O)N[C@H](Cc1ccccc1)C(N)=O [D-Phe-Phe-Tyr-D-Trp-Lys-Val-Phe-D-Phe-NH2] (H-[dF]FY[dW]KVF[dF]-NH2),3.3
3,CC(C)C1NC(=O)C(CCCCN)NC(=O)C(Cc2c[nH]c3ccccc23)NC(=O)C(Cc2ccc(O)cc2)NC(=O)C(NC(=O)C(N)Cc2cccc3ccccc23)CSSCC(C(=O)NC(CO)C(C)O)NC1=O (stereo not given) [DC23-60] (H-[1Nal]CYWKVC[Thr(ol)]; disulfide 2-7; configuration not given here),1.5
4,C[C@@H](O)[C@@H]1NC(=O)[C@H](CCCCN)NC(=O)[C@@H](Cc2c[nH]c3ccccc23)NC(=O)[C@H](Cc2c[nH]c3ccccc23)NC(=O)[C@H](Cc2ccccc2)NC(=O)CCCCCCNC(=O)[C@H](Cc2ccccc2)NC1=O [L-362855] (cyclo([Ahp]FW[dW]KTF)),0.005
5,C[C@@H](O)[C@@H]1NC(=O)[C@H](CCCCN)NC(=O)[C@@H](Cc2c[nH]c3ccccc23)NC(=O)[C@H](Cc2ccccc2)NC(=O)[C@H](Cc2ccc(Cl)cc2)NC(=O)CCCCCCNC(=O)[C@H](Cc2ccccc2)NC1=O [L-362862] (cyclo([Ahp][Phe(4-Cl)]F[dW]KTF)),0.47
6,"CC(C)[C@H](NC(=O)[C@H](CCCCN)NC(=O)[C@@H](Cc1c[nH]c2ccccc12)NC(=O)[C@H](Cc1ccc(O)cc1)NC(=O)[C@H](C)NC(=O)[C@H](N)Cc1ccccc1)C(=O)N[C@@H](C)C(=O)N[C@@H](Cc1ccc2ccccc2c1)C(N)=O [L-Alaninamide,D-phenylalanyl-L-alanyl-L-tyrosyl-D-tryptophyl-L-lysyl-L-valyl-L-alanyl-3-(2-naphthalenyl)-(9CI)] (H-[dF]AY[dW]KVA[2Nal]-NH2)",29
7,C[C@H](O)[C@H]1NC(=O)[C@H](CCCCN)NC(=O)[C@@H](Cc2c[nH]c3ccccc23)NC(=O)[C@@H](Cc2ccccc2)NC(=O)[C@@H](C)N(C)C(=O)[C@@H](Cc2ccccc2)N(C)C1=O [N-Methylcyclo(D-Ala-D-Phe-D-Trp-L-Lys-D-Thr-N-methyl-D-Phe-)] (cyclo(K[dT][dNMeF][dNMeA][dF][dW])),405
8,NCCCCC1NC(=O)C(Cc2c[nH]c3ccccc23)NC(=O)C(Cc2ccc(O)cc2)NC(=O)C(NC(=O)C(N)Cc2ccccc2)CSSCC(C(=O)NCc2cccc3ccccc23)NC(=O)C(CO)NC1=O (stereo not given) [NC4-28B] (H-FCYWKSC-{NH(1-naphthylmethyl)}; disulfide 2-7; configuration not given here),1
9,CC(O)[C@@H]1NC(=O)[C@@H](CCCCN)NC(=O)[C@H](Cc2c[nH]c3ccccc23)NC(=O)[C@@H](Cc2ccccc2)NC(=O)[C@H](Cc2ccccc2)NC(=O)[C@@H](CC(N)=O)NC(=O)[C@H](CCCCN)NC(=O)[C@@H](NC(=O)CNC(=O)[C@H](C)N)CSSC[C@H](C(=O)O)NC(=O)[C@@H](CO)NC(=O)[C@H]([C@@H](C)O)NC(=O)[C@@H](Cc2ccccc2)NC1=O (stereo partly drawn) [SRIF-D-Trp8],0.002
10,NCCCC[C@@H]1NC(=O)[C@@H](Cc2c[nH]c3ccccc23)NC(=O)[C@H](Cc2ccccc2)NC(=O)CCCCCCNC(=O)[C@H](COCc2ccccc2)NC1=O [c[Aha-Phe-D-Trp-Lys-Ser(Bzl)]] (cyclo([Ahp]F[dW]KS(Bn))),188
11,C[C@@H](Oc1ccccc1)[C@@H]1NC(=O)[C@H](CCCCN)NC(=O)[C@@H](Cc2c[nH]c3ccccc23)NC(=O)[C@H](Cc2ccccc2)NCCCCCCNC1=O [c[Aha-Phe-D-Trp-Lys-Thr(Bzl)]],51
12,C[C@@H](O)[C@@H]1NC(=O)[C@H](CCCCN)NC(=O)[C@@H](Cc2c[nH]c3ccccc23)NC(=O)[C@H](Cc2ccccc2)NC(=O)CCCCCCNC1=O [c[Aha-Phe-D-Trp-Lys-Thr]] (cyclo([Ahp]F[dW]KT)),1000
13,C[C@@H](OCc1ccccc1)[C@@H]1NC(=O)[C@H](CCCCN)NC(=O)[C@@H](Cc2c[nH]c3ccccc23)NC(=O)[C@H](Cc2ccccc2)NC(=O)CCCCCNC1=O [c[Ahx-Phe-D-Trp-Lys-Thr(Bzl)]] (cyclo([Ahx]F[dW]KT(Bn))),34
14,C[C@@H](OCc1ccccc1)[C@@H]1NC(=O)[C@H](CCCCN)NC(=O)[C@@H](Cc2c[nH]c3ccccc23)NC(=O)[C@H](Cc2ccccc2)NC(=O)CCCCCCCNC1=O [c[Aoc-Phe-D-Trp-Lys-Thr(Bzl)]] (cyclo([Aoc]F[dW]KT(Bn))),50
15,CSCC[C@H](NC(=O)[C@H](C)NC(=O)[C@@H]1CCCN1C(=O)[C@H](CC(N)=O)NC(=O)[C@H](CO)NC(=O)[C@H](CC(N)=O)NC(=O)[C@H](C)NC(=O)[C@@H](N)CO)C(=O)N[C@@H](C)C(=O)N1CCC[C@H]1C(=O)N[C@@H](CCCNC(=N)N)C(=O)N[C@@H](CCC(=O)O)C(=O)N[C@@H](CCCNC(=N)N)C(=O)N[C@@H](CCCCN)C(=O)N[C@@H](C)C(=O)NCC(=O)N[C@H]1CSSC[C@@H](C(=O)O)NC(=O)[C@H](CO)NC(=O)[C@H]([C@@H](C)O)NC(=O)[C@H](Cc2ccccc2)NC(=O)[C@H]([C@@H](C)O)NC(=O)[C@H](CCCCN)NC(=O)[C@H](Cc2c[nH]c3ccccc23)NC(=O)[C@H](Cc2ccccc2)NC(=O)[C@H](Cc2ccccc2)NC(=O)[C@H](CC(N)=O)NC(=O)[C@H](CCCCN)NC1=O [somatostatin-28],0.23
